Reference: publication PMC9506414, “Novel 2,6,9-Trisubstituted Purines as Potent CDK Inhibitors Alleviating Trastuzumab-Resistance of HER2-Positive Breast Cancers” (Pharmaceuticals, 2022)

How the values were obtained:
Assay in all cases: Kinome-wide inhibition profiling
Type in all cases: biochemical
MYO3A = target: T1, MYO3A (Homo sapiens, UniProt Q8NEV4)
T1 construct: purchased Reaction Biology Corp
Protocol: (§1) In vitro CDK12/cyclinK assays for all compounds and in vitro kinome-wide inhibition profiling of 30d at 10 μM were performed by a CRO company (Reaction Biology Corp., San Diego, CA, USA).

PIM2 = target: T2, PIM2 (Homo sapiens, UniProt Q9P1W9)
T2 construct: purchased Reaction Biology Corp
Protocol: as §1

ZAK = target: T3, ZAK (Homo sapiens, UniProt Q9NYL2)
T3 construct: purchased Reaction Biology Corp
Protocol: as §1

TYRO3 = target: T4, TYRO3 (Homo sapiens, UniProt Q06418)
T4 construct: purchased Reaction Biology Corp
Protocol: as §1

QSK = target: T5, QSK (Homo sapiens, UniProt Q9Y2K2)
T5 construct: purchased Reaction Biology Corp
Protocol: as §1

TSSK3 = target: T6, TSSK3 (Homo sapiens, UniProt Q96PN8)
T6 construct: purchased Reaction Biology Corp
Protocol: as §1

MAP3K2 = target: T7, MAP3K2 (Homo sapiens, UniProt Q9Y2U5)
T7 construct: purchased Reaction Biology Corp
Protocol: as §1

PAK2 = target: T8, PAK2 (Homo sapiens, UniProt Q13177)
T8 construct: purchased Reaction Biology Corp
Protocol: as §1

PRKCQ = target: T9, PRKCQ (Homo sapiens, UniProt Q04759)
T9 construct: purchased Reaction Biology Corp
Protocol: as §1

MERTK = target: T10, MERTK (Homo sapiens, UniProt Q12866)
T10 construct: purchased Reaction Biology Corp
Protocol: as §1

Kit = target: T11, Kit (Homo sapiens, UniProt P10721)
T11 construct: purchased Reaction Biology Corp
Protocol: as §1

MARK3 = target: T12, MARK3 (Homo sapiens, UniProt P27448)
T12 construct: purchased Reaction Biology Corp
Protocol: as §1

KSR2 = target: T13, KSR2 (Homo sapiens, UniProt Q6VAB6)
T13 construct: purchased Reaction Biology Corp
Protocol: as §1

DDR1 = target: T14, DDR1 (Homo sapiens, UniProt Q08345)
T14 construct: purchased Reaction Biology Corp
Protocol: as §1

PLK4 = target: T15, PLK4 (Homo sapiens, UniProt O00444)
T15 construct: purchased Reaction Biology Corp
Protocol: as §1

DRAK1 = target: T16, DRAK1 (Homo sapiens, UniProt Q9UEE5)
T16 construct: purchased Reaction Biology Corp
Protocol: as §1

SNARK = target: T17, SNARK (Homo sapiens, UniProt Q9H093)
T17 construct: purchased Reaction Biology Corp
Protocol: as §1

DDR2 = target: T18, DDR2 (Homo sapiens, UniProt Q16832)
T18 construct: purchased Reaction Biology Corp
Protocol: as §1

PRKCE = target: T19, PRKCE (Homo sapiens, UniProt Q02156)
T19 construct: purchased Reaction Biology Corp
Protocol: as §1

EPHA1 = target: T20, EPHA1 (Homo sapiens, UniProt P21709)
T20 construct: purchased Reaction Biology Corp
Protocol: as §1

LOK = target: T21, LOK (Homo sapiens, UniProt O94804)
T21 construct: purchased Reaction Biology Corp
Protocol: as §1

ARAF = target: T22, ARAF (Homo sapiens, UniProt P10398)
T22 construct: purchased Reaction Biology Corp
Protocol: as §1

INSRR = target: T23, INSRR (Homo sapiens, UniProt P14616)
T23 construct: purchased Reaction Biology Corp
Protocol: as §1

WNK3 = target: T24, WNK3 (Homo sapiens, UniProt Q9BYP7)
T24 construct: purchased Reaction Biology Corp
Protocol: as §1

TRKB = target: T25, TRKB (Homo sapiens, UniProt Q16620)
T25 construct: purchased Reaction Biology Corp
Protocol: as §1

MST4 = target: T26, MST4 (Homo sapiens, UniProt Q9P289)
T26 construct: purchased Reaction Biology Corp
Protocol: as §1

PDGFRa = target: T27, PDGFRa (Homo sapiens, UniProt P16234)
T27 construct: purchased Reaction Biology Corp
Protocol: as §1

ERK7 = target: T28, ERK7 (Homo sapiens, UniProt Q8TD08)
T28 construct: purchased Reaction Biology Corp
Protocol: as §1

CDK5/p35 = target: T29, CDK5/p35 (Homo sapiens, UniProt Q00535)
T29 construct: purchased Reaction Biology Corp
Protocol: as §1

BRSK1 = target: T30, BRSK1 (Homo sapiens, UniProt Q8TDC3)
T30 construct: purchased Reaction Biology Corp
Protocol: as §1

NDR2 = target: T31, NDR2 (Homo sapiens, UniProt Q9Y2H1)
T31 construct: purchased Reaction Biology Corp
Protocol: as §1

MEK3 = target: T32, MEK3 (Homo sapiens, UniProt P46734)
T32 construct: purchased Reaction Biology Corp
Protocol: as §1

LIMK1 = target: T33, LIMK1 (Homo sapiens, UniProt P53667)
T33 construct: purchased Reaction Biology Corp
Protocol: as §1

ERN2 = target: T34, ERN2 (Homo sapiens, UniProt Q76MJ5)
T34 construct: purchased Reaction Biology Corp
Protocol: as §1

RSK1 = target: T35, RSK1 (Homo sapiens, UniProt Q15418)
T35 construct: purchased Reaction Biology Corp
Protocol: as §1

CSK = target: T36, CSK (Homo sapiens, UniProt P41240)
T36 construct: purchased Reaction Biology Corp
Protocol: as §1

PAK3 = target: T37, PAK3 (Homo sapiens, UniProt O75914)
T37 construct: purchased Reaction Biology Corp
Protocol: as §1

CHEK1 = target: T38, CHEK1 (Homo sapiens, UniProt O14757)
T38 construct: purchased Reaction Biology Corp
Protocol: as §1

TTBK2 = target: T39, TTBK2 (Homo sapiens, UniProt Q6IQ55)
T39 construct: purchased Reaction Biology Corp
Protocol: as §1

CHEK2 = target: T40, CHEK2 (Homo sapiens, UniProt O96017)
T40 construct: purchased Reaction Biology Corp
Protocol: as §1

MAP3K8 = target: T41, MAP3K8 (Homo sapiens, UniProt P41279)
T41 construct: purchased Reaction Biology Corp
Protocol: as §1

MAP4K3 = target: T42, MAP4K3 (Homo sapiens, UniProt Q8IVH8)
T42 construct: purchased Reaction Biology Corp
Protocol: as §1

LATS1 = target: T43, LATS1 (Homo sapiens, UniProt O95835)
T43 construct: purchased Reaction Biology Corp
Protocol: as §1

OSR1 = target: T44, OSR1 (Homo sapiens, UniProt O95747)
T44 construct: purchased Reaction Biology Corp
Protocol: as §1

T29 sequence (Q00535 whole entry): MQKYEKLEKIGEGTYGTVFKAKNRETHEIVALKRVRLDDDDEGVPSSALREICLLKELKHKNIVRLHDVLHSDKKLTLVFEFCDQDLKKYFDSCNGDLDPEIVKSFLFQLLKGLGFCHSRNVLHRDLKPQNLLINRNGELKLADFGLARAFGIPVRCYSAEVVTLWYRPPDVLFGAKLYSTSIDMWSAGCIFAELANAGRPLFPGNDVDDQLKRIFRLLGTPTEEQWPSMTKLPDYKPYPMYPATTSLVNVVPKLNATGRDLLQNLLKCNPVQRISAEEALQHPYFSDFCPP
T29 sequence (Q15078 whole entry partner): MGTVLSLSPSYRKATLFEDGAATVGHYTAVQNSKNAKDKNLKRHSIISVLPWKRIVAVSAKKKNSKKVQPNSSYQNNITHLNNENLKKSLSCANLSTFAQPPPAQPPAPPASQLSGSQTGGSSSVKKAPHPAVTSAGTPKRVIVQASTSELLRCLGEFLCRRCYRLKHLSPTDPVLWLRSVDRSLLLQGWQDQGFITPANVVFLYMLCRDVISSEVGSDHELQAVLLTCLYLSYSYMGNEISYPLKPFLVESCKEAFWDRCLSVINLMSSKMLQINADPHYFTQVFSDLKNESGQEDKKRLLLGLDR
T14 sequence (Q08345 19-913): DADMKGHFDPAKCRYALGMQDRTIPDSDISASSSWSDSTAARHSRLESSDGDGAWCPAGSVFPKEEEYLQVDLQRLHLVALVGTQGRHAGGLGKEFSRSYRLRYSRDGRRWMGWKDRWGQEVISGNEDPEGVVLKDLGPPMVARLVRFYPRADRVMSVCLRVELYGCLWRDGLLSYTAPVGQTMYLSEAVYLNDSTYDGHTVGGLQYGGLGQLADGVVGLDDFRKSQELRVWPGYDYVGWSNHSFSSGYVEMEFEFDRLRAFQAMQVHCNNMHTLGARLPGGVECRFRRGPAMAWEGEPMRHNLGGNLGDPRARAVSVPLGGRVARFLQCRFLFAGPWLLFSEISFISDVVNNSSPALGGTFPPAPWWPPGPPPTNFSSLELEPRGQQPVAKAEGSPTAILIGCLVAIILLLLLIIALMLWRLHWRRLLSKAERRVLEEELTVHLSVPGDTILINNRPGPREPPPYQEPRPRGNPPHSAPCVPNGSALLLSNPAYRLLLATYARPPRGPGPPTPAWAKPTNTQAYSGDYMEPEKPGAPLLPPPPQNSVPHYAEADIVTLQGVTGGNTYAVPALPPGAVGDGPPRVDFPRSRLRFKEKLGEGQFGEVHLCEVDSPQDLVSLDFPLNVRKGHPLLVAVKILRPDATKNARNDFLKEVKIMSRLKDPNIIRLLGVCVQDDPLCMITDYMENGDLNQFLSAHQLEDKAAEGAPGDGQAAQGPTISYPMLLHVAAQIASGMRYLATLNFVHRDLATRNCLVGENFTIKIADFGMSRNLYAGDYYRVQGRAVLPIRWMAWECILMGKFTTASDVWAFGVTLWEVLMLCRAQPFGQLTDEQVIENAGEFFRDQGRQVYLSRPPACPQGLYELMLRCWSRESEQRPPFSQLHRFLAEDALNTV
T39 sequence (Q6IQ55 whole entry): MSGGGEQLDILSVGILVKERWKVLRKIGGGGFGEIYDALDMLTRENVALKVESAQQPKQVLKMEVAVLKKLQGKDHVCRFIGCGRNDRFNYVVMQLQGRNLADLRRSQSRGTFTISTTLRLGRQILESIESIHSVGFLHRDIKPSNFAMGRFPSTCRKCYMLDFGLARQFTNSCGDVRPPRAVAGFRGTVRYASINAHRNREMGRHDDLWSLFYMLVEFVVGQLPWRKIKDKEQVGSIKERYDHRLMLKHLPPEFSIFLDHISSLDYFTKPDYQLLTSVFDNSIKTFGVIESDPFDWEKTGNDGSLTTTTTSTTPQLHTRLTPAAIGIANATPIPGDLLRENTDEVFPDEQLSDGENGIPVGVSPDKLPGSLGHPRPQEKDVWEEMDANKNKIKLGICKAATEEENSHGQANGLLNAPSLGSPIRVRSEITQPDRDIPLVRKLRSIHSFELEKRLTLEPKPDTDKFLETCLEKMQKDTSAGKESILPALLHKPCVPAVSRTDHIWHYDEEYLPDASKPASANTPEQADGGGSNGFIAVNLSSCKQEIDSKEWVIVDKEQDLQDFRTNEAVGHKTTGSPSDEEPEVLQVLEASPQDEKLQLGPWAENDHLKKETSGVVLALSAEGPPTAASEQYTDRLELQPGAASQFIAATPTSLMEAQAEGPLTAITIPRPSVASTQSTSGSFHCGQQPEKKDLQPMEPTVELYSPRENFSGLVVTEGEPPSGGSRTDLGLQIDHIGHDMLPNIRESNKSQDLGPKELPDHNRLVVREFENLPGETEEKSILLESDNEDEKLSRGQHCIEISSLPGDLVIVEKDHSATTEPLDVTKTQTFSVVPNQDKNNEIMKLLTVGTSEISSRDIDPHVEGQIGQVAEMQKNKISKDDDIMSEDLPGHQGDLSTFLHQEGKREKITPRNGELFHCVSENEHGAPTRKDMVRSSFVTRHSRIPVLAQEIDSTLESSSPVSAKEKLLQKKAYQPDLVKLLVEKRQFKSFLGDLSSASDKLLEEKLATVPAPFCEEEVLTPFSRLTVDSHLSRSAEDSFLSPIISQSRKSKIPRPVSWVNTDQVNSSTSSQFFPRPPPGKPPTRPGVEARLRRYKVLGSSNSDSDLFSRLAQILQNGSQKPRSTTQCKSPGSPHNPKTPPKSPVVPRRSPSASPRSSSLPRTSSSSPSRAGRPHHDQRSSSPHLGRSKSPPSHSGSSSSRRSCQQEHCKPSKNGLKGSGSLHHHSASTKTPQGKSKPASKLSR
T41 sequence (P41279 whole entry): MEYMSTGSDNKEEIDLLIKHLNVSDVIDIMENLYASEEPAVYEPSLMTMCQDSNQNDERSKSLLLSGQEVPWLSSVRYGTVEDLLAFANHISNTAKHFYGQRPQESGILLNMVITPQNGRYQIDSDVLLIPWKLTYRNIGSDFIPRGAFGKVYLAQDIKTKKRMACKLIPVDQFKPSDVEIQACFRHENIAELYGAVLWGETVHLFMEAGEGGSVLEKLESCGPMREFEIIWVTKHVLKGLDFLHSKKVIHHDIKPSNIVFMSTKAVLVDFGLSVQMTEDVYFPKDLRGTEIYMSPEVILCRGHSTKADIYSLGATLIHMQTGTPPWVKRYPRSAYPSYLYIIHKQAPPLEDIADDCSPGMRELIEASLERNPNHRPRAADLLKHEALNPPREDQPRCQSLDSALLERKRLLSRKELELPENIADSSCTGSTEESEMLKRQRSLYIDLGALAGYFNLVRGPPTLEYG
T7 sequence (Q9Y2U5 whole entry): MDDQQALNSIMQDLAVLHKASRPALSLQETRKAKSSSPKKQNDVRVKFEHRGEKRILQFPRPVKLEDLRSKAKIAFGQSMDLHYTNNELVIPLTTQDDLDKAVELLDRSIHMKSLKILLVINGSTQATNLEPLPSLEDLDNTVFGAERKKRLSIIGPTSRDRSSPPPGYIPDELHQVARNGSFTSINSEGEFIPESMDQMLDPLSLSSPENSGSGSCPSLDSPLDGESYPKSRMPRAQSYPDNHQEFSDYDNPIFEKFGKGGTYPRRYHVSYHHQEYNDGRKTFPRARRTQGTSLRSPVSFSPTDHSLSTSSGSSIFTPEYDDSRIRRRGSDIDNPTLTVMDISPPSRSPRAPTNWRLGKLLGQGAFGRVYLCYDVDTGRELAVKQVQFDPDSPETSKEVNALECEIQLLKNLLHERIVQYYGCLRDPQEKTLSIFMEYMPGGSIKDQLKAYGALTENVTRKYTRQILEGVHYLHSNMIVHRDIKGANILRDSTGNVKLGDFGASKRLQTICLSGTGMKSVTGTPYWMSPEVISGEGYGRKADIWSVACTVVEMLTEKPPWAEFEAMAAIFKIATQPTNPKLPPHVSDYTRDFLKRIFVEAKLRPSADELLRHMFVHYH
T22 sequence (P10398 whole entry): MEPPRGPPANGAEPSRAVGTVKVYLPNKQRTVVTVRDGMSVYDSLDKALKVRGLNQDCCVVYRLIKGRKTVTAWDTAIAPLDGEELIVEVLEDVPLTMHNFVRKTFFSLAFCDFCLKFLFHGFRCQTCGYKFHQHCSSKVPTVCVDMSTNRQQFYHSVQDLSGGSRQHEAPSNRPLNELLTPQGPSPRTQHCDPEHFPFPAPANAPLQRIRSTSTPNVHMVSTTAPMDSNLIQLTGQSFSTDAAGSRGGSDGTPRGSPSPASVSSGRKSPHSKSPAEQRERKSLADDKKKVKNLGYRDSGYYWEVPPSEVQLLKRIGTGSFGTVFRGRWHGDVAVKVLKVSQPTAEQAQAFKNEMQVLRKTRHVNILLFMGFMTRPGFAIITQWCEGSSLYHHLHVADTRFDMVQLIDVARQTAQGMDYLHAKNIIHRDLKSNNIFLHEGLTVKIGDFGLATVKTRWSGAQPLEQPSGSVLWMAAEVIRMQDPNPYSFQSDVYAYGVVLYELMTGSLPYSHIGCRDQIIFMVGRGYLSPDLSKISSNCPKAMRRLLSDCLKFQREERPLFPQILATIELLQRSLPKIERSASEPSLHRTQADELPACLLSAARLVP
T16 sequence (Q9UEE5 whole entry): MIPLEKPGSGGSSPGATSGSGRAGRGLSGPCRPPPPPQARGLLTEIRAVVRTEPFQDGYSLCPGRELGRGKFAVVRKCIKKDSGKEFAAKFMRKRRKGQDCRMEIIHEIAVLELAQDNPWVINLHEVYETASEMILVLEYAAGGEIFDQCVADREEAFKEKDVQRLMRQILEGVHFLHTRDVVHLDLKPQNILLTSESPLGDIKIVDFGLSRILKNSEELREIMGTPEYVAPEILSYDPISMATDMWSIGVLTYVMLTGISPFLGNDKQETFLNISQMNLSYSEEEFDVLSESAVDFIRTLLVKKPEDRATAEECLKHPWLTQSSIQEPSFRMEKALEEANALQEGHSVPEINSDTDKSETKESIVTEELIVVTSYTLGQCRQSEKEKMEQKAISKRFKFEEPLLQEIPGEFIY

CCn1cnc2c(NCc3ccc(-c4ccccn4)nc3)nc(-c3ccc(N)nc3)nc21 [Compound 30d, N-([2,2′-Bipyridin]-5-ylmethyl)-2-(6-aminopyridin-3-yl)-9-ethyl-9H-purin-6-amine]
remaining activity at 10 µM (MYO3A): 71.3%
remaining activity at 10 µM (PIM2): 93.8%
remaining activity at 10 µM (ZAK): 97.5%
remaining activity at 10 µM (TYRO3): 22.4%
remaining activity at 10 µM (QSK): 30.2%
remaining activity at 10 µM (TSSK3): 91.5%
remaining activity at 10 µM (MAP3K2): 90%
remaining activity at 10 µM (PAK2): 46.7%
remaining activity at 10 µM (PRKCQ): 79.8%
remaining activity at 10 µM (MERTK): 71%
remaining activity at 10 µM (Kit): 14.2%
remaining activity at 10 µM (MARK3): 83.1%
remaining activity at 10 µM (KSR2): 88.4%
remaining activity at 10 µM (DDR1): 50.2%
remaining activity at 10 µM (PLK4): 83.4%
remaining activity at 10 µM (DRAK1): 79.3%
remaining activity at 10 µM (SNARK): 59%
remaining activity at 10 µM (DDR2): 87.2%
remaining activity at 10 µM (PRKCE): 94.1%
remaining activity at 10 µM (EPHA1): 13.2%
remaining activity at 10 µM (LOK): 41.4%
remaining activity at 10 µM (ARAF): 79.5%
remaining activity at 10 µM (INSRR): 31.1%
remaining activity at 10 µM (WNK3): 74.5%
remaining activity at 10 µM (TRKB): 16.5%
remaining activity at 10 µM (MST4): 45.8%
remaining activity at 10 µM (PDGFRa): 52.8%
remaining activity at 10 µM (ERK7): 13.5%
inhibition at 10 µM (CDK5/p35): > 95%
remaining activity at 10 µM (CDK5/p35): 0.7%
remaining activity at 10 µM (BRSK1): 92.8%
remaining activity at 10 µM (NDR2): 36.9%
remaining activity at 10 µM (MEK3): 73.5%
remaining activity at 10 µM (LIMK1): 59.9%
remaining activity at 10 µM (ERN2): 65.4%
remaining activity at 10 µM (RSK1): 59.1%
remaining activity at 10 µM (CSK): 54.8%
remaining activity at 10 µM (PAK3): 29.1%
remaining activity at 10 µM (CHEK1): 79.5%
remaining activity at 10 µM (TTBK2): 97.3%
remaining activity at 10 µM (CHEK2): 7.4%
remaining activity at 10 µM (MAP3K8): 102%
remaining activity at 10 µM (MAP4K3): 49.6%
remaining activity at 10 µM (LATS1): 85%
remaining activity at 10 µM (OSR1): 50.8%
